Experimental data reported in patent US10154955B2, “Compositions including bauhinia, methods of making and using the same in skin anti-aging and other skin applications” (ACCESS BUSINESS GROUP INTERNATIONAL LLC, priority 2016, dated 2018).
Converted amounts (≈) assume the structure as drawn. “And” between values parts separate entries of the source, which are not always exact repeats. Identical values can stand only once.

Assays:
Hep G2 [HEPG2] cells = assay: Anti-carbonylation assay (protein carbonyl ELISA after H2O2 treatment); type: cell-based; settings: 3 mM H2O2 4 hr, replicate values
Protocol: The purpose of this experiment was to test […] on anti-carbonylation assay using Hep G2 [HEPG2] (ATCC#HB-8065) cell line. The carbonylation process is related to protein degeneration and is similar to oxidation and glycation. On Day 1 of the procedure, Hep G2 [HEPG2] cells were plated on 96-well cell culture plates. To do so, disk was trypsinized and the cell density was determined. The cell slurry was diluted to the required volume at a density of 625,000 cells/ml. 160 ul/well of the cell slurry was dispensed onto assay plates. (100,000 cells per well). The assay plates were incubated overnight at 37 degrees C., 5% CO2 under humidified conditions. On Day 2, the cells were treated with […] and Hydroquinone or Vitamin C as a reference. 200× compounds were prepared in 100% DMSO. Transfer 5 ul 200× compound was transferred to 95 ul completed medium (MEM with 10% FBS), and mixed 5 times. 20 ul 10× compound solution was transferred onto assay plates. The assay plates were incubated at 37 degrees C., 5% CO2 under humidified conditions. Day 3 included treatment with H2O2. 30 mM H2O2 solution was prepared and 20 ul/well of H2O2 solution was dispensed onto assay plates (H2O2 final conc. 3 mM). The assay plates were incubated for 4 hr at 37 degrees C., 5% CO2 under humidified conditions. Following the incubation, the cell culture medium was discarded and cells once washed once with PBS. 60 ul PBS was added onto assay plate, frozen at -80° C. Frozen samples were recovered 3 times. […] The liquid supernatant was then transferred to compound plate. 5 ul of each cell lysis was obtained and the protein concentration was tested. The protein concentration was adjusted to 5 μg/ml with PBS and reduced BSA (total protein conc. 10 μg/ml), and mixed 5 times. 100 uL of the 5 ug/ml samples was then transferred onto the 96-well Protein Binding Plate, and incubated in 4° C. overnight. To perform ELISA assay on Day 5, the wells were washed 3 times with 250 μL PBS per well and excess wash solution removed. 100 μL of the 0.04 mg/ml DNPH Working Solution was added and the plates were incubated for 45 minutes at room temperature in the dark. The plates were then washed 5 times with 250 μL of PBS/Ethanol (1:1, v/v) with incubation on an orbital shaker for 5 minutes. Next, the plates were washed 2 times with 250 μL of PBS. 200 μL of Blocking Solution was added per well and the plates were incubated for 2 hours at room temperature on an orbital shaker, and then washed 3 times with 250 μL of 1× Wash Buffer with thorough aspiration between each wash. 100 μL anti-DNP antibody was added and the plates were incubated for 1 hour at room temperature on an orbital shaker. Next, the strip wells were washed 3 times (1× wash buffer), 100 μL of the diluted HRP conjugated secondary antibody was added to all wells and plates were incubated for 1 hour at room temperature on an orbital shaker. The strip wells were then washed 5 times (1× wash buffer). The Substrate Solution was warmed to room temperature and 100 μL of Substrate Solution was added to each well, 5 20 min. The enzyme reaction was stopped by adding 100 μL of Stop Solution to each well. […] Data Process included: • Signal=Sample 450 nm Signal-10 ug/ml Reduced BSA Signal • Protein Carbonyl Conc. (PCC)=(Signal-Y intercept)/Slope • % Inh=(Max PCC-Sample PCC)/(Max PCC-Min PCC)×100 • Max PCC was obtained from the cells treated with H2O2 • Min PCC was obtained from none treated cells • IC50 was calculated using GraphPad Prism V5.0 software

[1] = Cell toxicity-CTG in HepG2 cells; type: cell-based; settings: human, FIG. 5
Protocol: On Day 1 of the procedure, Hep G2 [HEPG2] cells were plated on 96-well cell culture plates. To do so, disk was trypsinized and the cell density was determined. The cell slurry was diluted to the required volume at a density of 625,000 cells/ml. 160 ul/well of the cell slurry was dispensed onto assay plates. (100,000 cells per well). The assay plates were incubated overnight at 37 degrees C., 5% CO2 under humidified conditions. On Day 2, the cells were treated with […] and Hydroquinone or Vitamin C as a reference. 200× compounds were prepared in 100% DMSO. Transfer 5 ul 200× compound was transferred to 95 ul completed medium (MEM with 10% FBS), and mixed 5 times. 20 ul 10× compound solution was transferred onto assay plates. The assay plates were incubated at 37 degrees C., 5% CO2 under humidified conditions.

## O=C1O[C@H]([C@@H](O)CO)C(O)=C1O [Vit. C, Vitamin C]
Hep G2 [HEPG2] cells; 33 ug/ml
  Carbonylation inhibition: 28.6%
Hep G2 [HEPG2] cells; 100 ug/ml
  Carbonylation inhibition: 64.6%
Hep G2 [HEPG2] cells; 300 ug/ml
  Carbonylation inhibition: 49.1% and 76.2%
Hep G2 [HEPG2] cells; Homo sapiens, HepG2, 4 h, 33 ug/ml
  inhibition at 33 µg/mL: 33.5%
Hep G2 [HEPG2] cells; Homo sapiens, HepG2, 4 h, 100 ug/ml
  inhibition at 100 µg/mL: 46.1%

## Oc1ccc(O)cc1 [Hydroquinone]
[1]
  IC50: 8.44 µg/mL (≈ 76.7 µM)
